The values that follow come from patent US7524504B1, “Anti-glycation hydrolysate of G. lucidum” (priority 2008, dated 2009).

For the experiment, the system named is AGE-related proteins. Kind of experiment: Inhibition of AGE-related proteins (HSA + glucose incubation, fluorescence). Type of experiment: biochemical, human. The settings on record: 7 days of incubation. The protocol: Inhibition of AGE-related proteins was assayed according to the following method. First, a reaction mixture was prepared by mixing 20 mg/ml of human serum albumin (HSA) in 200 mM phosphate buffer (pH 7.4) with 500 mM [90.08 mg/ml] of glucose and 0.02% [0.2 mg/ml] sodium azide (as a preservative). The reaction mixture was incubated at 37° C. for three weeks, during which time AGE-related proteins were produced via a Maillard-type reaction. After 7, 14 and 21 days, aliquots of the reaction mixture were passed through a molecular weight sieve (PD-10 column) and equilibrated in water to remove free glucose and Schiff base. […] The latter reaction generates fluorescent by-products with fluorescence proportional to the amount of accumulated AGE-related proteins as determined with a microplate fluorescence reader (Bio-Tek FL600) at an excitation wavelength of 360 nm and an emission wavelength of 440 nm.
To aliquots of the initial reaction mixture capable of producing AGE-related endproducts as described above were added varying concentrations of extract of G. lucidum according to the present invention (i.e., hydrolyzed with acid protease of R. miehei and thereafter rendered substantially devoid of acid protease activity). […] Fluorescence was measured after 7 days of incubation in the reaction mixture as set out above.

In the case of `N=C(N)NN` [aminoguanidine, Aminoguanidine], the “Fluorescence (at 440 nm), normalized to 100” value by setting is: (100 mM + Positive Control) 73; (200 mM + Positive Control) 45.
